These results are taken from US6916802B2, “Amino ceramide-like compounds and therapeutic methods of use” (Genzyme Corporation, priority 2002, dated 2005).

Data set [1] relates to MDCK cells. The data set can be described thus: GlcCer, ceramide and diradylglycerol content of treated MDCK cells (Specific Example 2). To be noted: for GlcCer lost from the cells (depletion): 11.3 nM inhibitor. The format is cell-based, canine. The procedure:
Cell culture and lipid extraction. One half million of MDCK cells were seeded into 10 cm style dish containing 8 ml serum free DMEM supplemented medium. Shayman, J. A. et al., J. Biol. Chem., 265:12135-12138 (1990). […] The GlcCer synthase inhibitors were added into the medium as a one to one complex with delipidated BSA. Abe, A. et al., J. Lipid. Res., 36:611-621 (1995); Abe, A. et al., Biochim. Biophys. Acta, 1299:331-341 (1996). The cells were incubated for 24 h or 48 h with the inhibitors. After the incubation, the cells were washed twice with 8 ml of cold PBS and fixed with 2 ml of cold methanol. The fixed cells were scraped and transferred to a glass tube. Another one ml of methanol was used to recover the remaining cells in the dish.
Three ml of chloroform was added to the tube and briefly sonicated using a water bath type sonicator. After centrifugation at 800 g for 5 min, the supernatant was transferred into another glass tube. The residues were reextracted with chloroform/methanol (1/1). After the centrifugation, the resultant supernatant was combined with the first one. The residues were air-dried and kept for protein analysis. Adding 0.9% NaCl to the supematant combined, the ratio of chloroform/methanol/aqueous was adjusted to 1/1/1. After centrifugation 800 g for 5 min, the upper layer was discarded. Methanol/water (1/1) with the same amount of volume of the lower layer was used to wash. The resultant lower layer was transferred into a small glass tube and dried down under a stream of nitrogen gas. A part of the lipid was used for lipid phosphate determination. Ames, B. N., Methods Enzymol., 8:115-118 (1966). The remainder was analyzed using HPTLC (Merck).
In order to determine whether inhibition of 1-O-acylceramide synthase was the basis for inhibitor mediated ceramide accumulation, the ceramide and diradylglycerol levels of MDCK cells treated D-threo-P4, D-threo-3′,4′-ethylenedioxy-P4, and D-threo-(4′-hydroxy)-P4 were measured (Table 9). MDCK cells (5×10^5) were seeded into a 10 cm dish and incubated for 24 h. Following the incubation, the cells were treated for 24 or 48 h with or without P4 or the phenyl substitute homologues. Both ceramide and diradylglycerol contents were determined by the method of Preis, J. et al., J. Biol. Chem., 261:8597-8600 (1986). GlcCer content was measured densitometrically by a video camera and use of NIH image 1.49. Significant increases in both ceramide and diradylglycerol occurred only in cells treated with inhibitor concentrations in excess of 1 mM. This was approximately 30-fold lower than the concentration required for inhibition of the 1-O-acylceramide synthase assayed in the cellular homogenates. […] Abe, A. et al., Biochim. Biophys. Acta, 1299:331-341 (1996).
(§1) Effects of D-threo-P4, D-threo4′-hydroxy-P4 and D-threo-3,4′-ethylenedioxy-P4 on GlcCer Synthesis and Cell Growth. To confirm the cellular specificity of D-threo-3′,4′-ethylenedioxy-P4 and D-threo-(4′-hydroxy)-P4 as compared to D-threo-P4, MDCK cells were treated with different concentrations of the inhibitors. The total protein amount in each sample was determined by the BCA method. In GlcCer analysis, lipid samples and standard lipids were applied to the same HPTLC plate pre-treated with borate and developed in a solvent consisting of C/M/W (63/24/4). The level of GlcCer was estimated from a standard curve obtained using a computerized image scanner. The values were normalized on the basis of the phospholipid content. The results are shown in FIG. 7, wherein each bar is the average values from three dishes, with error bars corresponding to one standard deviation. In the control, the total protein and GlcCer were 414±47.4 μg/dish and 24.3±1.97 ng/nmol phosphate, respectively.

Data set [2] has as its target T1, 1-O-acylceramide synthase (Canis lupus familiaris, UniProt Q6XPZ3).
T1 construct: the 1-O-acylceramide synthase assayed in the cellular homogenates; endogenous in cells; host or cells: cellular homogenates (MDCK, from context)
T1 sequence (Q6XPZ3 32-408): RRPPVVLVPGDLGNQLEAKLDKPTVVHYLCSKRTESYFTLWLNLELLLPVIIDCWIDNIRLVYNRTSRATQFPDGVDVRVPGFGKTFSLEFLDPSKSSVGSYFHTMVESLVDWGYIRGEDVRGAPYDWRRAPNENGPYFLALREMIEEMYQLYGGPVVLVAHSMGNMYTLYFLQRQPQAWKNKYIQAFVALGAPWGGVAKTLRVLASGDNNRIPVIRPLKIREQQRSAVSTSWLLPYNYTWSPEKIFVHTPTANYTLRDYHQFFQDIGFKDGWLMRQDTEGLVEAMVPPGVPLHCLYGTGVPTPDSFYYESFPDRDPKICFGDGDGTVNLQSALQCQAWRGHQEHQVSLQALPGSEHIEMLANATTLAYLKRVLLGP
The data set is described as follows: 1-O-acylceramide synthase (transacylase) assay. It counts as biochemical. To be noted: D-threo enantiomers, FIG. 12. The source says:
Distinguishing Between Inhibition of GlcCer Synthase and 1-O-acylceramide Synthase Inhibition. […] An alternative pathway for ceramide metabolism was subsequently identified, the acylation of ceramide at the 1-hydroxyl position, which was blocked by both threo and erythro diastereomers of PDMP. The specificities of D-threo-P4, D-threo-3′,4′-ethylenedioxy-P4, and D-threo-(4′-hydroxy)-P4 for GlcCer synthase were studied by assaying the transacylase.

For data set [3] the following is noted: substituent of phenyl group; estimated from the Table in Hogberg et al.; cited from earlier work.
For data set [4], the system named is MDCK cells. The data set can be described thus: Cell growth of treated MDCK cells, total protein (Specific Example 2). It counts as cell-based, canine. The method, then:
Cell culture and lipid extraction. One half million of MDCK cells were seeded into 10 cm style dish containing 8 ml serum free DMEM supplemented medium. Shayman, J. A. et al., J. Biol. Chem., 265:12135-12138 (1990). After 24 h the medium was replaced with 8 ml of the medium containing 0, 11.8, 118 or 1180 nM D-t-P4, D-t-3′,4′-ethylenedioxy-P4 or D-4′-hydroxy)-P4. The GlcCer synthase inhibitors were added into the medium as a one to one complex with delipidated BSA. Abe, A. et al., J. Lipid. Res., 36:611-621 (1995); Abe, A. et al., Biochim. Biophys. Acta, 1299:331-341 (1996). The cells were incubated for 24 h or 48 h with the inhibitors. After the incubation, the cells were washed twice with 8 ml of cold PBS and fixed with 2 ml of cold methanol. The fixed cells were scraped and transferred to a glass tube. Another one ml of methanol was used to recover the remaining cells in the dish.
as §1

Data set [5] concerns GlcCer synthase of MDCK cell homogenates. The data set can be described thus: Inhibition of ceramide glucosyltransferase (GlcCer synthase) of MDCK cell homogenates. The format is biochemical, canine. To be noted: triplicate ± SD, samples partly isomer mixtures. The procedure:
Assay of sphingolipid enzymes. The inhibitors were evaluated for their effectiveness against the GlcCer synthase of MDCK cell homogenates by incubation in a thermostatted ultrasonic bath (Radin N. S. et al., “Ultrasonic Baths as Substitutes for Shaking Incubator Baths,” Enzyme, 45:67-70 (1991)) with octanoyl sphingosine and uridinediphospho[^3H]glucose (Shukla, G. S. et al., “Glucosylceramide Synthase of Mouse Kidney: Further Characterization and Improved Assay Method,” Arch. Biochem. Biophys., 283:372-378 (1990)). The lipoidal substrate (85 μg) was added in liposomes made from 0.57 mg dioleoylphosphatidylcholine and 0.1 mg of Na sulfatide. Confluent cells were washed, then homogenized with a micro-tip sonicator at 0° C. for 3×30 sec; ˜0.2 mg of protein was used in each assay tube. In the case of the aromatic inhibitors, the test compound was simply evaporated to dryness from solution in the incubation tube. […] The aliphatic inhibitors, which appeared to be less soluble in water, were added as part of the substrate liposomes.

For data set [6], the system named is 9L brain gliosarcoma cells. The data set is described as follows: Tumor cell growth in vitro (sulforhodamine B), 9L. The format is cell-based. The method, then:
(§2) Growth of cell lines. Comparisons of different inhibitors with regard to suppression of human cancer cell growth were made by the University of Michigan Cancer Center in vitro Drug Evaluation Core Laboratory. MCF-7 breast carcinoma cells, HT-29 colon adenocarcinoma cells, H-460 lung large cell carcinoma cells, and 9L brain gliosarcoma cells were grown in RPMI 1640 medium with 5% fetal bovine serum, 2 mM glutamine, 50 units/ml of penicillin, […] of streptomycin, and 0.1 mg/ml of neomycin. UMSCC-10A head and neck squamous carcinoma cells were grown in minimal essential medium with Earle salts and the same supplements. Medium components were from Sigma Chemical Co. Cells were plated in 96-well microtiter plates (1000 cells/well for H-460 and 9L cells, and 2000 cells/well for the other lines), and the test compounds were added 1 day later. The stock inhibitor solutions, 2 mM in 2 mM BSA, were diluted with different amounts of additional 2 mM BSA, then each solution was diluted 500-fold with growth medium to obtain the final concentrations indicated in the Figures and Tables.
(§3) Five days after plating the H-460 and 9L cells, or 6 days for the other lines, cell growth was evaluated by staining the adhering cells with sulforhodamine B and measuring the absorbance at 520 nm (Skehan, P. et al., “New Colorimetric Cytotoxicity Assay for Anticancer-Drug Screening,” J. Natl. Cancer Inst., 82:1107-1112 (1990)). The absorbance of the treated cultures is reported as percent of that of control cultures, to provide an estimate of the fraction of the cells that survived, or of inhibition of growth rate.

Data set [7] deals with HT-29 colon adenocarcinoma cells. The data set is described as follows: Tumor cell growth in vitro (sulforhodamine B), HT-29. It counts as cell-based, human. To be noted: Homo sapiens, rounded off to one digit, read-out: Inhibition of tumor cell growth in vitro, IC50. The procedure: as §2, §3
The subject of data set [8] is MCF-7 breast carcinoma cells. The data set can be described thus: Tumor cell growth in vitro (sulforhodamine B), MCF-7. The format is cell-based, human. To be noted: Homo sapiens, MCF7, rounded off to one digit, read-out: Inhibition of tumor cell growth in vitro, IC50. The procedure: as §2, §3
Data set [9] has as its system H-460 lung large cell carcinoma cells. The data set is described as follows: Tumor cell growth in vitro (sulforhodamine B), H-460. It counts as cell-based, human. To be noted: Homo sapiens, NCI-H460, rounded off to one digit, read-out: Inhibition of tumor cell growth in vitro, IC50. The method, then: as §2, §3
For data set [10], the system named is UMSCC-10A head and neck squamous carcinoma cells. The data set can be described thus: Tumor cell growth in vitro (sulforhodamine B), UMSCC-10A. It counts as cell-based, human. To be noted: Homo sapiens, rounded off to one digit, read-out: Inhibition of tumor cell growth in vitro, IC50. The method, then: as §2, §3

“And” between values parts separate entries of the source, which are not always exact repeats. Equal values may be shown once. Marks after values point to notes of the source that are not given here.

Regarding `CCCCCCCCCCCCCCCC(=O)N[C@H](CN1CCCC1)[C@H](O)c1ccccc1` [D-threo-P4], in the data set on MDCK cells [1], the “GlcCer lost from the cells (depletion)” value worked out at 27%. Besides, the “Ceramide (pmol/nmol phospholipids)” value came out at 5.33 ± 0.41 pmol/nmol phospholipids in the data set on MDCK cells [1] (11.3 nM, 24 h); 5.68 ± 0.27 pmol/nmol phospholipids in the data set with MDCK cells [1] (11.3 nM, 48 h); 4.64 ± 0.38 pmol/nmol phospholipids with MDCK cells [1] (113 nM, 24 h); 7.08 ± 0.29 pmol/nmol phospholipids with MDCK cells [1] (113 nM, 48 h); 5.10 ± 0.35 pmol/nmol phospholipids in the data set on MDCK cells [1] (1130 nM, 24 h); 9.74 ± 0.53 pmol/nmol phospholipids with MDCK cells [1] (1130 nM, 48 h). For the same molecule, the “Diradylglycerol (pmol/nmol phospholipids)” value in the data set with MDCK cells [1] (11.3 nM, 24 h) is recorded as 24.1 ± 1.66 pmol/nmol phospholipids; with MDCK cells [1] (11.3 nM, 48 h), 29.6 ± 0.73 pmol/nmol phospholipids; with MDCK cells [1] (113 nM, 24 h), 26.6 ± 1.56 pmol/nmol phospholipids; in the data set on MDCK cells [1] (113 nM, 48 h) it was 33.0 ± 2.63 pmol/nmol phospholipids; in the data set with MDCK cells [1] (1130 nM, 24 h) it was 27.1 ± 0.67 pmol/nmol phospholipids; with MDCK cells [1] (1130 nM, 48 h), 38.8 ± 1.11 pmol/nmol phospholipids. In addition, the “activity in blocking 1-O-acylceramide synthase” value in data set [2] is recorded as “comparable activity”. In addition, the “σ + π” value in data set [3] was 0.00.
On to `CCCCCCCCCCCCCCCC(=O)N[C@H](CN1CCCC1)[C@H](O)c1ccc2c(c1)OCCO2` [D-threo-3′,4′-ethylenedioxy-P4, D-t-3′,4′-ethylenedioxy-1-phenyl-2-palmitoylamino-3-pyrrolidino-1-propanol], for which the figures for the “GlcCer lost from the cells (depletion)” value in the data set with MDCK cells [1] and in the data set with MDCK cells [1] (listed as D-t-3′,4′-ethylenedioxy-P4) were around 78% and 80%, respectively. In addition, the “Ceramide (pmol/nmol phospholipids)” value with MDCK cells [1] (113 nM, 24 h) was 5.21 pmol/nmol phospholipids. Also, the “level of ceramide versus untreated cells” value with MDCK cells [1] (1130 nM) is reported as “two times higher”. The “activity in blocking 1-O-acylceramide synthase” value in data set [2] was “comparable activity”. In the data set with MDCK cells [4] (1130 nM), the “total protein versus untreated cells” value is “significant decrease”. Also, in the data set on MDCK cells [4] (11.3 or 113 nM), the “total protein content versus untreated cells” value is listed as “little difference”.
One may read the Inhibition as the change of the read-out against control, counted positive when it falls. A word on the IC50: it is the point on the concentration scale where inhibition reaches its midpoint. Regarding `CCCCCCCCCCCCCCCC(=O)NC(CN1CCCC1)C(O)c1ccccc1` (racemic) [BML-119, 1-phenyl-2-palmitoylamino-3-pyrrolidino-1-propanol], in data set [5] (5 μM inhibitor, 5 µM), the “Inhibition at 5 μM” value was 50% and 51 ± 2.3^e % and 49 ± 0.8^f %. Further, in data set [5] (80 μM inhibitor, 80 µM), the “% Inhibition at 80 μM” value was 94 ± 1.4^b % and 97 ± 0.1^c % and 96 ± 0.1^d %. For the same molecule, the activity at 1 µM in [6] (9L cells, 1 μM inhibitor, read-out: growth, % of control growth) is 71%. For the same molecule, the activity at 3 µM in data set [6] (9L cells, 3 μM inhibitor, read-out: growth, % of control growth) was 3%. In addition, the concentration for half-maximal inhibition (IC50) was 1000 nM in data set [6] (9L, rounded off to one digit, read-out: Inhibition of tumor cell growth in vitro, IC50); 1000 nM in data set [7]; 2000 nM in [8]; 1000 nM in data set [9]; 1000 nM in data set [10].
